# Results reported in patent US5292742A, “Angiotensin II receptor blocking 2,3,6 substituted quinazolinones” (American Cyanamid Company, priority 1993, dated 1994).
# Several values for one entry are separate records, joined by “and”; a condition that tells them apart may be missing. Equal entries are not always repeated.
# System: angiotensin II (AII) vasopressor response
# Test: AII challenge: inhibition of angiotensin II vasopressor response in conscious spontaneously hypertensive rats
# Assay type: in vivo, rat (Okamoto-Aoki SHR)
# Conditions: 3 mg/kg IV; for % Inhibition (angiotensin blockage) of AII vasopressor response / Average Change (increase in systolic blood pressure after AII): SHR n = 2; for Change (increase in systolic blood pressure after AII), individual rat / Response After AII (systolic blood pressure), individual rat / Control Before AII (systolic blood pressure), individual rat: individual SHR
# Text: By administering a compound of this invention to a rat, and then challenging with angiotensin II, a blockage of the vasopressor response is realized.
# Conscious Male Okamoto-Aoki SHR, 16-20 weeks old, weighing approximately 330 g are purchased from Charles River Labs (Wilmington, Mass.). Conscious rats are restrained in a supine position with elastic tape. The area at the base of the tail is locally anesthetized by subcutaneous infiltration with 2% procaine. The ventral caudal artery and vein are isolated, and a cannula made of polyethylene (PE) 10-20 tubing (fused together by heat) is passed into the lower abdominal aorta and vena cava, respectively. The cannula is secured, heparinized (1,000 I.U./ml), sealed and the wound is closed. The animals are placed in plastio restraininq cages in an upright position. The cannula is attached to a Statham P23Db pressure transducer, and pulsatile blood pressure is recorded to 10-15 minutes with a Gould Brush recorder. (Chan et al., (Drug Development Res., 18:75-94, 1989).
# Angiotensin II (human sequence, Sigma Chem. Co., St. Louis, Mo.) of 0.05 and 0.1 mcg/kg i.v. is injected into all rats (predosing response). Then a test compound, vehicle or a known angiotensin II antagonist is administered i.v., i.p. or orally to each set of rats. The two doses of angiotensin II are given to each rat again at 30, 60, 90, 120, 180, 240 and 300 minutes post dosing the compound or vehicle. The vasopressor response of angiotensin II is measured for the increase in systolic blood pressure in mmHg. The percentage of antagonism or blockade of the vasopressor response of angiotensin II by a compound is calculated using the vasopressor response (increase in systolic blood pressure) of angiotensin II of each rat predosing the compound as 100%. A compound is considered active if at 30 mg/kg i.v. it antagonized at least 50% of the response.
# [1] = AII 0.05 mcg/kg IV, 30 min post dose
# [2] = AII 0.05 mcg/kg IV, 60 min post dose
# [3] = AII 0.05 mcg/kg IV, 90 min post dose
# [4] = AII 0.05 mcg/kg IV, 120 min post dose
# [5] = AII 0.05 mcg/kg IV, 180 min post dose
# [6] = AII 0.05 mcg/kg IV, 240 min post dose
# [7] = AII 0.05 mcg/kg IV, 300 min post dose
# [8] = AII 0.1 mcg/kg IV, 30 min post dose
# [9] = AII 0.1 mcg/kg IV, 60 min post dose
# [10] = AII 0.1 mcg/kg IV, 90 min post dose
# [11] = AII 0.1 mcg/kg IV, 120 min post dose
# [12] = AII 0.1 mcg/kg IV, 180 min post dose
# [13] = AII 0.1 mcg/kg IV, 240 min post dose
# [14] = AII 0.1 mcg/kg IV, 300 min post dose
smiles,measurement,setting,value
"CCCCc1nc2ccc(C3=NN4CCCC4C3)cc2c(=O)n1Cc1ccc(-c2ccccc2-c2nnn[nH]2)cc1 (stereo not shown) [Example 10, 2-Butyl-6-(3a,4,5,6-tetrahydro-3H-pyrrolo[1,2-b]-pyrazol-2-yl)-3-[[2'-(1H-tetrazol-5-yl)[1,1'-biphenyl]-4-yl]methyl]-4(3H)-quinazolinone]",% Inhibition (angiotensin blockage) of AII vasopressor response,[1],61%
same,Average Change (increase in systolic blood pressure after AII),[1],13.5 mmHg
same,"Change (increase in systolic blood pressure after AII), individual rat",[1],12 mmHg and 15 mmHg
same,% Inhibition (angiotensin blockage) of AII vasopressor response,[2],7%
same,Average Change (increase in systolic blood pressure after AII),[2],32.5 mmHg
same,"Change (increase in systolic blood pressure after AII), individual rat",[2],30 mmHg and 35 mmHg
same,% Inhibition (angiotensin blockage) of AII vasopressor response,[3],43%
same,Average Change (increase in systolic blood pressure after AII),[3],20 mmHg
same,"Change (increase in systolic blood pressure after AII), individual rat",[3],30 mmHg and 10 mmHg
same,% Inhibition (angiotensin blockage) of AII vasopressor response,[4],43%
same,Average Change (increase in systolic blood pressure after AII),[4],20 mmHg
same,"Change (increase in systolic blood pressure after AII), individual rat",[4],25 mmHg and 15 mmHg
same,% Inhibition (angiotensin blockage) of AII vasopressor response,[5],36%
same,Average Change (increase in systolic blood pressure after AII),[5],22.5 mmHg
same,"Change (increase in systolic blood pressure after AII), individual rat",[5],25 mmHg and 20 mmHg
same,% Inhibition (angiotensin blockage) of AII vasopressor response,[6],50%
same,Average Change (increase in systolic blood pressure after AII),[6],17.5 mmHg
same,"Change (increase in systolic blood pressure after AII), individual rat",[6],20 mmHg and 15 mmHg
same,% Inhibition (angiotensin blockage) of AII vasopressor response,[7],7%
same,Average Change (increase in systolic blood pressure after AII),[7],32.5 mmHg
same,"Change (increase in systolic blood pressure after AII), individual rat",[7],35 mmHg and 30 mmHg
same,% Inhibition (angiotensin blockage) of AII vasopressor response,[8],55%
same,Average Change (increase in systolic blood pressure after AII),[8],22.5 mmHg
same,"Change (increase in systolic blood pressure after AII), individual rat",[8],20 mmHg and 25 mmHg
same,% Inhibition (angiotensin blockage) of AII vasopressor response,[9],55%
same,Average Change (increase in systolic blood pressure after AII),[9],22.5 mmHg
same,"Change (increase in systolic blood pressure after AII), individual rat",[9],25 mmHg and 20 mmHg
same,% Inhibition (angiotensin blockage) of AII vasopressor response,[10],50%
same,Average Change (increase in systolic blood pressure after AII),[10],25 mmHg
same,"Change (increase in systolic blood pressure after AII), individual rat",[10],25 mmHg
same,% Inhibition (angiotensin blockage) of AII vasopressor response,[11],50%
same,Average Change (increase in systolic blood pressure after AII),[11],25 mmHg
same,"Change (increase in systolic blood pressure after AII), individual rat",[11],30 mmHg and 20 mmHg
same,% Inhibition (angiotensin blockage) of AII vasopressor response,[12],45%
same,Average Change (increase in systolic blood pressure after AII),[12],27.5 mmHg
same,"Change (increase in systolic blood pressure after AII), individual rat",[12],30 mmHg and 25 mmHg
same,% Inhibition (angiotensin blockage) of AII vasopressor response,[13],50%
same,Average Change (increase in systolic blood pressure after AII),[13],25 mmHg
same,"Change (increase in systolic blood pressure after AII), individual rat",[13],25 mmHg
same,% Inhibition (angiotensin blockage) of AII vasopressor response,[14],30%
same,Average Change (increase in systolic blood pressure after AII),[14],35 mmHg
same,"Change (increase in systolic blood pressure after AII), individual rat",[14],45 mmHg and 25 mmHg
same,"Response After AII (systolic blood pressure), individual rat","after AII 0.05 mcg/kg IV, 30 min post dose",242 mmHg and 255 mmHg
same,"Response After AII (systolic blood pressure), individual rat","after AII 0.05 mcg/kg IV, 60 min post dose",255 mmHg and 270 mmHg
same,"Response After AII (systolic blood pressure), individual rat","after AII 0.05 mcg/kg IV, 90 min post dose",255 mmHg and 250 mmHg
same,"Response After AII (systolic blood pressure), individual rat","after AII 0.05 mcg/kg IV, 120 min post dose",250 mmHg and 230 mmHg
same,"Response After AII (systolic blood pressure), individual rat","after AII 0.05 mcg/kg IV, 180 min post dose",235 mmHg
same,"Response After AII (systolic blood pressure), individual rat","after AII 0.05 mcg/kg IV, 240 min post dose",230 mmHg and 235 mmHg
same,"Response After AII (systolic blood pressure), individual rat","after AII 0.05 mcg/kg IV, 300 min post dose",250 mmHg and 245 mmHg
same,"Response After AII (systolic blood pressure), individual rat","after AII 0.1 mcg/kg IV, 30 min post dose",250 mmHg and 260 mmHg
same,"Response After AII (systolic blood pressure), individual rat","after AII 0.1 mcg/kg IV, 60 min post dose",255 mmHg and 260 mmHg
same,"Response After AII (systolic blood pressure), individual rat","after AII 0.1 mcg/kg IV, 90 min post dose",265 mmHg and 260 mmHg
same,"Response After AII (systolic blood pressure), individual rat","after AII 0.1 mcg/kg IV, 120 min post dose",265 mmHg and 240 mmHg
same,"Response After AII (systolic blood pressure), individual rat","after AII 0.1 mcg/kg IV, 180 min post dose",245 mmHg and 250 mmHg
same,"Response After AII (systolic blood pressure), individual rat","after AII 0.1 mcg/kg IV, 240 min post dose",250 mmHg and 240 mmHg
same,"Response After AII (systolic blood pressure), individual rat","after AII 0.1 mcg/kg IV, 300 min post dose",255 mmHg and 250 mmHg
same,"Control Before AII (systolic blood pressure), individual rat","before AII 0.05 mcg/kg IV, 30 min post dose",230 mmHg and 240 mmHg
same,"Control Before AII (systolic blood pressure), individual rat","before AII 0.05 mcg/kg IV, 60 min post dose",225 mmHg and 235 mmHg
same,"Control Before AII (systolic blood pressure), individual rat","before AII 0.05 mcg/kg IV, 90 min post dose",225 mmHg and 240 mmHg
same,"Control Before AII (systolic blood pressure), individual rat","before AII 0.05 mcg/kg IV, 120 min post dose",225 mmHg and 215 mmHg
same,"Control Before AII (systolic blood pressure), individual rat","before AII 0.05 mcg/kg IV, 180 min post dose",210 mmHg and 215 mmHg
same,"Control Before AII (systolic blood pressure), individual rat","before AII 0.05 mcg/kg IV, 240 min post dose",210 mmHg and 220 mmHg
same,"Control Before AII (systolic blood pressure), individual rat","before AII 0.05 mcg/kg IV, 300 min post dose",215 mmHg
same,"Control Before AII (systolic blood pressure), individual rat","before AII 0.1 mcg/kg IV, 30 min post dose",230 mmHg and 235 mmHg
same,"Control Before AII (systolic blood pressure), individual rat","before AII 0.1 mcg/kg IV, 60 min post dose",230 mmHg and 240 mmHg
same,"Control Before AII (systolic blood pressure), individual rat","before AII 0.1 mcg/kg IV, 90 min post dose",240 mmHg and 235 mmHg
same,"Control Before AII (systolic blood pressure), individual rat","before AII 0.1 mcg/kg IV, 120 min post dose",235 mmHg and 220 mmHg
same,"Control Before AII (systolic blood pressure), individual rat","before AII 0.1 mcg/kg IV, 180 min post dose",215 mmHg and 225 mmHg
same,"Control Before AII (systolic blood pressure), individual rat","before AII 0.1 mcg/kg IV, 240 min post dose",225 mmHg and 215 mmHg
same,"Control Before AII (systolic blood pressure), individual rat","before AII 0.1 mcg/kg IV, 300 min post dose",210 mmHg and 225 mmHg
